Data taken from patent publication US5939437A, “CCK and gastrin receptor ligands” (James Black Foundation Limited, priority 1994, dated 1999).

How the values were obtained:
CCKB = target: T1, CCKB (Mus musculus, UniProt P56481); experiment: radioligand binding assay at the CCKB (CCK8 [sic]) receptor in mouse cortical membranes; details: [125I]-CCK8S 200 pM, 150 min at 21±3° C.; for Ki: read-out: CCKB pKi (converted)
T1 construct: The cortex was dissected, weighed and homogenised in 40 ml ice-cold buffer; from tissue; host or cells: cerebral cortex membranes of male CD1 mice (Charles River)
T1 sequence (P56481 1-453): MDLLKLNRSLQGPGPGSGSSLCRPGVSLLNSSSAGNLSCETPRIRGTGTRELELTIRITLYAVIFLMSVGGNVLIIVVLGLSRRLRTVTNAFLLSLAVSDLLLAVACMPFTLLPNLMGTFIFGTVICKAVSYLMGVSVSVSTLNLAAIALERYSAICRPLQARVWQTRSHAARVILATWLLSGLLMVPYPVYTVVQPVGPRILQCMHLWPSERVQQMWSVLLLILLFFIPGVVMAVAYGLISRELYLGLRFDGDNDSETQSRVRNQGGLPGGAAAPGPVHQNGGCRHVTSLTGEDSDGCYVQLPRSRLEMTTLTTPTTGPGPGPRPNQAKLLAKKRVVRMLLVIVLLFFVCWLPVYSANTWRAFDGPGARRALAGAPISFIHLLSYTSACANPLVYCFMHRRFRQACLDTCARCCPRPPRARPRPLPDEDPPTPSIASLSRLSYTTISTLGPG
Procedure: The compounds of the examples were tested for binding at the CCK8 receptor in mouse cortical membranes by means of a radioligand binding assay. The procedure was as follows: The whole brains from male mice (CD1 22-25 g; Charles River) were removed and placed in ice-cold buffer (pH7.2@21±3° C.) of the following composition (mM); 10 HEPES, 130 NaCl, 4.7 KCl, 5 MgCl2, 1 EDTA and containing 0.25 g.1^-1 bacitracin. The cortex was dissected, weighed and homogenised in 40 ml ice-cold buffer using a Teflon-in-glass homogeniser. The homogenate was centrifuged at 39,800 g for 20 min at 4° C., the supernatant discarded and the pellet resuspended by homogenisation in fresh buffer. The homogenate was recentrifuged (39,800 g; 20 min@4° C.) and the final pellet was resuspended in HEPES buffer to give a tissue concentration of 2 mg.ml^-1 (original wet weight). The membranes ([…]) were incubated for 150 min at 21±3° C. in a final volume of 0.5 ml with HEPES buffer containing [^25 I]-CCK8S (0.05 ml; 200 pM NEN 2200 Ci.mmol^-1) and competing compound. Total and non-specific binding of [^125 I]-CCK8S were defined using 0.05 ml of buffer and 0.05 ml of […] L-365,260, respectively. The assay was terminated by rapid filtration through pre-soaked Whatman GF/B 35 filters using a Brandell Cell harvester. The filters were washed (3×3 ml) with ice-cold 5 mM Tris-HCl (pH7.4@4° C.) and bound radioactivity determined by counting (1 min.) in a gamma-counter.

Gastrin = target: T2, Gastrin (Rattus norvegicus, UniProt P30553); experiment: gastrin antagonist activity in an immature rat stomach assay (pentagastrin-stimulated acid secretion, isolated stomach); details: cumulative pentagastrin dose-response curves, 60 min after drug; for Kb: read-out: Gastrin pKB (converted)
T2 construct: The stomach was excised and flushed with ca. 1 ml unbuffered physiological saline solution; from tissue; host or cells: isolated whole stomach of immature rats (33-50 g, ca. 21 days old)
T2 sequence (P30553 1-452): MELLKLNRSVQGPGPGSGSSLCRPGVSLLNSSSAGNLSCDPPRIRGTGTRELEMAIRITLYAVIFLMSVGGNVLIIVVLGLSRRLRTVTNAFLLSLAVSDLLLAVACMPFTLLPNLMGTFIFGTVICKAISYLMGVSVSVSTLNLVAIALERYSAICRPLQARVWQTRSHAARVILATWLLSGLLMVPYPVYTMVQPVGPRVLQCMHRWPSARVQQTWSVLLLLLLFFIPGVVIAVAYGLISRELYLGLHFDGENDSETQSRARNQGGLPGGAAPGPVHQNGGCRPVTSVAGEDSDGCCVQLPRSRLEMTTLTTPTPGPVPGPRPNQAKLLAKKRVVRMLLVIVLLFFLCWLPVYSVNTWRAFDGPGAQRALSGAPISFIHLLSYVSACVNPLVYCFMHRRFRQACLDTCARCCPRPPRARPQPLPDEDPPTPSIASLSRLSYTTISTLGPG
Procedure: The compounds of the examples were also tested for gastrin antagonist activity in an immature rat stomach assay. The procedure was follows:
The oesophagus of immature rats (33-50 g, ca. 21 days old) was ligated at the level of the cardiac sphincter and the duodenal sphincter was cannulated. The stomach was excised and flushed with ca. 1 ml unbuffered physiological saline solution. The fundus was punctured and cannulated. A further 4-5 ml of unbuffered solution was flushed through the stomach to ensure the preparation was not leaking. The stomach was lowered into a jacketed organ bath containing 40 ml of buffered solution containing 3×10^-8 M5methylfurmethide, maintained at 37° and gassed vigorously with 95% O2 /5% CO2. The stomach was continuously perfused at a rate of 1 ml min^-1 with unbuffered solution gassed with 100% O2 with the perfusate passing over an internally referenced pH-electrode fixed 12 cm above the stomach.
After 120 min of stabilisation the drugs were added directly to the serosal solution in the organ bath and after a further 60 min cumulative pentagastrin dose-response curves were started. Changes in acid secretion were monitored and the curves analysed according to Black et. al., Br. J. Pharmacol., 1985, 86, 581.

CCKA = target: T3, CCKA (Cavia porcellus, UniProt Q63931); experiment: CCKA binding assay (guinea-pig pancreas membranes); details: [125I]-CCK8(S) 200 pM, 0.375 μM PD134,308 present, 150 minutes at 21±3° C.; for Ki: read-out: CCKA pKi (converted)
T3 construct: The pancreatata were homogenised in 40 ml ice-cold HEPES buffer; from tissue; host or cells: pancreas membranes of male Dunkin Hartley guinea-pigs
T3 sequence (Q63931 1-430): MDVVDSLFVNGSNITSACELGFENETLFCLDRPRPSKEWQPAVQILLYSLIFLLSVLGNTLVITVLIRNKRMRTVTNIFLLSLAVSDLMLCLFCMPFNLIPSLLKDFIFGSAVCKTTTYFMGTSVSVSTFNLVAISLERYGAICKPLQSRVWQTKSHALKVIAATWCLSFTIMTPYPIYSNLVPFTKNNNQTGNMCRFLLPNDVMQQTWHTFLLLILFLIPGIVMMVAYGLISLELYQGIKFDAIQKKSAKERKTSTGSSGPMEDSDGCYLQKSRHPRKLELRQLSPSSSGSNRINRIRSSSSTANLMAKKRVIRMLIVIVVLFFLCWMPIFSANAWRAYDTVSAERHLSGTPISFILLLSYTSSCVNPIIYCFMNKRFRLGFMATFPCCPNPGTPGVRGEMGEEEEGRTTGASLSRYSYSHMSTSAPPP
Procedure: The compounds of the examples were also tested in a CCKA binding assay as follows:
The pancreatata were removed from male guinea-pigs (200-300 g; Dunkin Hartley) and placed in ice-cold HEPES buffer (pH 7.2@21 ±3° C.). The pancreatata were homogenised in 40 ml ice-cold HEPES buffer using a polytron (Brinkman, PT10, setting 10) 4×1 second. The homogenate was centrifuged at 39,800 g for 15 min at 4° C. The supernatant was discarded and the pellet re-suspended using a Teflon-in-glass homogeniser in 20 volumes of fresh buffer and re-centrifuged as above. The final pellet was re-suspended using a Teflon-in-glass homogeniser to a tissue concentration of 1 mg.ml^-1 (original wet weight), and filtered through 500 μm pore-size Nytex mesh.
The membranes (400 μl; containing 0.375 μM PD134,308) are incubated for 150 minutes at 21±3° C. in a final volume of 0.5 ml with HEPES buffer containing [^125 I]-CCK8 (S) (50 μl; 200 pM) and competing compound. Total and non-specific binding of [^125 I]-CCK^8 (S) are defined using 50 μl of buffer and 50 μl of 100 nM L-364,718respectively. The assay is terminated by rapid filtration through pre-soaked Whatman GF/B filters using a Brandell Cell Harvester. The filters were washed (3×3 ml) with ice-cold 50 mM Tris HCl (pH 7.4 at 4° C. and bound radioactivity is determined by counting (1 min) in a gamma counter.

SMILES	Ki (CCKB)	Kb (Gastrin)	Ki (CCKA)	CCKB pKi (CCKB)	Gastrin pKB (Gastrin)	CCKA pKi (CCKA)
O=C(O)c1cc(NC(=O)[C@H](Cc2ccccc2)NC(=O)c2ncccc2C(=O)NCC23CC4CC(CC(C4)C2)C3)cc(C(=O)O)c1 [Example 10, 2-(1S-(3,5-dicarboxyphenylamino-carbonyl)-2-phenylethylaminocarbonyl)-3-(1-adamantanemethylamino-carbonyl)pyridine]	794 nM	39.8 nM	2000 nM	–	–	–
COc1ccc(C(=O)NCC23CC4CC(CC(C4)C2)C3)c(C(=O)N[C@@H](Cc2ccccc2)C(=O)Nc2cc(C(=O)O)cc(C(=O)O)c2)c1 [Example 19, 1-(1S-(3,5-dicarboxyphenylamino-carbonyl)-2-phenylethylaminocarbonyl)-2-(1-adamantanemethyl-aminocarbonyl)-5-methoxybenzene]	158 nM	12.6 nM	2000 nM	–	–	–
O=C(O)c1cc(NC(=O)[C@@H](Cc2ccccc2)NC(=O)c2ccccc2C(=O)NCC23CC4CC(CC(C4)C2)C3)cc(C(=O)O)c1 [Example 3, (1R-(3,5-dicarboxyphenylaminocarbonyl)-2-phenylethylaminocarbonyl)-2-(1-adamantanemethylaminocarbonyl)-benzene]	398 nM	15.8 nM	7940 nM	–	–	–
O=C(O)c1cc(NC(=O)[C@H](Cc2ccccc2)NC(=O)c2ccccc2C(=O)NCC23CC4CC(CC(C4)C2)C3)cc(C(=O)O)c1 [Example 1, (1S-(3,5-dicarboxyphenylaminocarbonyl)-2-phenylethylaminocarbonyl)-2-(1-adamantanemethylaminocarbonyl)-benzene]	79.4 nM	3.98 nM	–	–	–	5.5

The next lines start with the values.

Ki (CCKB)	Kb (Gastrin)	Ki (CCKA)	CCKB pKi (CCKB)	Gastrin pKB (Gastrin)	CCKA pKi (CCKA)	SMILES
501 nM	100 nM	3160 nM	–	–	–	O=C(O)c1cc(NC(=O)[C@H](Cc2ccccc2)NC(=O)c2ccc([N+](=O)[O-])cc2C(=O)NCC23CC4CC(CC(C4)C2)C3)cc(C(=O)O)c1 [Example 14, 1-(1S-(3,5-dicarboxyphenylamino-carbonyl)-2-phenylethylaminocarbonyl)-2-(1-adamantanemethyl-aminocarbonyl)-4-nitrobenzene]
1000 nM	316 nM	1000 nM	–	–	–	O=C(O)c1cc(NC(=O)[C@H](Cc2ccccc2)NC(=O)c2cc([N+](=O)[O-])ccc2C(=O)NCC23CC4CC(CC(C4)C2)C3)cc(C(=O)O)c1 [Example 15, 1-(1S-(3,5-dicarboxyphenylamino-carbonyl)-2-phenylethylaminocarbonyl)-2-(l-adamantanemethyl-aminocarbonyl)-5-nitrobenzene]
63.1 nM	25.1 nM	2000 nM	–	–	–	O=C(O)c1cc(NC(=O)[C@H](Cc2ccccc2)NC(=O)c2c[nH]cc2C(=O)NCC23CC4CC(CC(C4)C2)C3)cc(C(=O)O)c1 [Example 13, 3-(1S-(3,5-dicarboxyphenylamino-carbonyl)-2-phenylethylaminocarbonyl)-4-(1-adamantanemethylamino-carbonyl)pyrrole]
50.1 nM	20 nM	12600 nM	–	–	–	Nc1ccc(C(=O)NCC23CC4CC(CC(C4)C2)C3)c(C(=O)N[C@@H](Cc2ccccc2)C(=O)Nc2cc(C(=O)O)cc(C(=O)O)c2)c1 [Example 17, 1-(1S-(3,5-dicarboxyphenylamino-carbonyl)-2-phenylethylaminocarbonyl)-2-(1-adamantanemethyl-aminocarbonyl)-5-aminobenzene]
–	–	–	6.5	6.3	5.9	O=C(O)c1cc(NC(=O)[C@H](Cc2ccccc2)NC(=O)c2ccccc2C(=O)NCC2CCCCCC2)cc(C(=O)O)c1 [Example 7, (1R-(3,5-dicarboxyphenylaminocarbonyl)-2-phenylethylaminocarbonyl)-2-(cycloheptanemethylaminocarbonyl)-benzene]
1260 nM	25.1 nM	1580 nM	–	–	–	O=C(O)c1cc(NC(=O)[C@H](Cc2ccc(O)cc2)NC(=O)c2ccccc2C(=O)NCC23CC4CC(CC(C4)C2)C3)cc(C(=O)O)c1 [Example 2, (1S-(3,5-dicarboxyphenylaminocarbonyl)-2-(4-hydroxyphenyl)-ethylaminocarbonyl)-2-(1-adamantanemethyl-aminocarbonyl)-benzene]
–	–	–	6.3	6.5	5.2	O=C(O)c1cc(NC(=O)[C@H](Cc2ccccc2)NC(=O)c2cocc2C(=O)NCC23CC4CC(CC(C4)C2)C3)cc(C(=O)O)c1 [Example 12, 3-(1S-(3,5-dicarboxyphenylamino-carbonyl)-2-phenylethylaminocarbonyl)-4-(1-adamantanemethyl-aminocarbonyl)furan]
